Our source for the melting point values is patent publication US8557805B2, “Fused ring compound and use thereof” (Takeda Pharmaceutical Company Limited, priority 2008, dated 2013).

As to `Cc1cc(Oc2ccc(S(C)(=O)=O)nc2)cc2cc(C3=NCC(CC(=O)NCC(C)(C)O)S3)[nH]c12` (stereo not drawn) [Example 75, N-(2-Hydroxy-2-methylpropyl)-2-[2-(7-methyl-5-{[6-(methylsulfonyl)pyridin-3-yl]oxy}-1H-indol-2-yl)-4,5-dihydro-1,3-thiazol-5-yl]acetamide], the melting point (as a rule, the temperature, or range, at which the solid turns liquid) lay within 184 to 186 °C.

Regarding `COCCNC(=O)CC1CN=C(c2cc3cc(Oc4ccc(S(C)(=O)=O)nc4)ccc3[nH]2)S1` (stereo not drawn) [Example 66, N-(2-Methoxyethyl)-2-[2-(5-{[6-(methylsulfonyl)pyridin-3-yl]oxy}-1H-indol-2-yl)-4,5-dihydro-1,3-thiazol-5-yl]acetamide], the melting point is 174 to 175 °C.

For `CNC(=O)CC1CN=C(c2cc3cc(Oc4ccc(S(C)(=O)=O)nc4)ccc3[nH]2)S1` (stereo not drawn) [Example 79], the melting point lay in the range of 172 to 173 °C.

For `CS(=O)(=O)c1ccc(Oc2cc(OC3CCOCC3)c3[nH]c(C4=NCC(CC(=O)N5CC(O)C5)S4)cc3c2)nc1` (stereo not drawn) [Example 18, 1-({2-[5-{[5-(Methylsulfonyl)pyridin-2-yl]oxy}-7-(tetrahydro-2H-pyran-4-yloxy)-1H-indol-2-yl]-4,5-dihydro-1,3-thiazol-5-yl}acetyl)azetidin-3-ol], the melting point was in the range of 180 to 181 °C.

With `CCNC(=O)CC1CN=C(c2cc3cc(Oc4ccc(S(C)(=O)=O)nc4)cc(CC)c3[nH]2)S1` (stereo not drawn) [Example 63, N-Ethyl-2-[2-(7-ethyl-5-{[6-(methylsulfonyl)pyridin-3-yl]oxy}-1H-indol-2-yl)-4,5-dihydro-1,3-thiazol-5-yl]acetamide], the melting point is 227 to 229 °C.

Take `CS(=O)(=O)c1ccc(Oc2ccc3[nH]c(C4=NCC(CC(=O)N5CCOCC5)S4)cc3c2)cn1` (stereo not drawn) [Example 68, 5-{[6-(Methylsulfonyl)pyridin-3-yl]oxy}-2-[5-(2-morpholin-4-yl-2-oxoethyl)-4,5-dihydro-1,3-thiazol-2-yl]-1H-indole]: the melting point was in the range of 168 to 169 °C.

The compound `CNC(=O)CC1CN=C(c2cc3cc(Oc4ccc(S(C)(=O)=O)nc4)cc(OC4CCOCC4)c3[nH]2)S1` (stereo not drawn) [Example 34, N-methyl-2-{2-[5-{[6-(Methylsulfonyl)pyridin-3-yl]oxy}-7-(tetrahydro-2H-pyran-4-yloxy)-1H-indol-2-yl]-4,5-dihydro-1,3-thiazol-5-yl}acetamide] returned a melting point of 143 to 144 °C.

Regarding `CN(C)C(=O)CC1CN=C(c2cc3cc(Oc4ccc(S(C)(=O)=O)nc4)ccc3[nH]2)S1` (stereo not drawn) [Example 64, N,N-Dimethyl-2-[2-(5-{[6-(methylsulfonyl)pyridin-3-yl]oxy}-1H-indol-2-yl)-4,5-dihydro-1,3-thiazol-5-yl]acetamide], the melting point was in the range of 190 to 191 °C.

Compound `Cc1cc(Oc2ccc(S(C)(=O)=O)nc2)cc2cc(C3=NCC(CC(=O)NC[C@H](C)O)S3)[nH]c12` (stereo partly drawn) [Example 76, N-[(2S)-2-Hydroxypropyl]-2-[2-(7-methyl-5-{[6-(methylsulfonyl)pyridin-3-yl]oxy}-1H-indol-2-yl)-4,5-dihydro-1,3-thiazol-5-yl]acetamide] yielded a melting point of 170 to 171 °C.

`Cc1cc(Oc2ccc(S(C)(=O)=O)nc2)cc2cc(C3=NCC(CC(=O)O)S3)[nH]c12` (stereo not drawn) [Example 71, [2-(7-Methyl-5-{[6-(methylsulfonyl)pyridin-3-yl]oxy}-1H-indol-2-yl)-4,5-dihydro-1,3-thiazol-5-yl]acetic acid] came in with a melting point of 248 to 249 °C.

Consider `CS(=O)(=O)c1ccc(Oc2cc(OC3CCOCC3)c3[nH]c(C4=NCC(CCO)S4)cc3c2)nc1` (stereo not drawn) [Example 13, 2-{2-[5-{[5-(Methylsulfonyl)pyridin-2-yl]oxy}-7-(tetrahydro-2H-pyran-4-yloxy)-1H-indol-2-yl]-4,5-dihydro-1,3-thiazol-5-yl}ethanol], for which the melting point fell in the range of 165 to 166 °C.

For `CS(=O)(=O)c1ccc(Oc2ccc3[nH]c(C4=NCC(CC(=O)O)S4)cc3c2)cn1` (stereo not drawn) [Example 52, [2-(5-{[6-(Methylsulfonyl)pyridin-3-yl]oxy}-1H-indol-2-yl)-4,5-dihydro-1,3-thiazol-5-yl]acetic acid], the melting point is 205 to 208 °C.
